Reference: patent US11554103B2, “Compositions and methods to reduce pharmaceutical-induced toxicity” (priority 2016, dated 2023)
“Also recorded” adds a separate entry of the source.

Experiments:
SNc dopaminergic neurons = assay: Pacemaking frequency in ex vivo slices; format: cell-based, mouse; settings: 10 μM methamphetamine
[1] = system: tyrosine hydroxylase positive cells in the SNc; assay: Methamphetamine 14 days plus 14 days withdrawal, stereology of tyrosine hydroxylase positive cells (Example 1); format: in vivo, mouse; settings: 5 mg/kg methamphetamine for 14 days, sacrificed after 14 days withdrawal
Method: Animals and treatment paradigms: Male C57/B16 and TH-mitoroGFP (Guzman et al., 2010 Nature p. 696; incorporated by reference in its entirety) mice 5-8 wks of age were used for all imaging studies. In addition to the TH-mitoroGFP transgenic line, roGFP was virally delivered into the SNc of C57/B16 mice (either targeting cytosolic or mitochondrial compartments).
Stereology: Brains were fixed with 4% paraformaldehyde and serial coronal sections ([…]) were stained for tyrosine hydroxylase. Total number of tyrosine hydroxylase positive cells were counted in the SNc with the optical fractionator method (West et al., 1991 Anat Rec p. 482; Ilijic et al., 2011 Neurobiol Dis p. 364; incorporated by reference in their entireties).

[2] = system: substantia nigra pars compacta dopaminergic neurons; assay: Chronic in vivo methamphetamine administration for 28 days, stereology and striatal optical density (Example 2); settings: 28 consecutive days
Method: Immunohistochemistry and stereological analysis: Mice were terminally anesthetized with a mixture of ketamine (50 mg/kg)/xylazine (4.5 mg/kg) and transcardially perfused with 4% paraformaldehyde, post-fixed overnight and cryoprotected in 30% sucrose/phosphate buffered saline (PBS) at 4° C. until use. Serial coronal sections (60 μm thick) were collected throughout the midbrain and striatum. To stain for tyrosine hydroxylase the anti-tyrosine hydroxylase polyclonal antibody (Millipore) 1:2000 followed by goat anti-rabbit IgG biotin conjugated antibody (Millipore) 1:500 with normal goat serum blocking solution was used; after antibody incubation and rinsing with PBS, sections were incubated with ABC Elite Kit (Vector) and processed for diaminobenzidine reaction. Slices were mounted on slides, allowed to dry overnight, dehydrated in ascending alcohol concentrations and mounted with DPX mountant (Sigma). The estimated number of tyrosine hydroxylase positive (TH^+) cells were stereologically counted as previously described.^27 Slices from DAT-Cre X Ai14 mice expressing TdTomato in dopaminergic neurons were mounted on slides, allowed to dry, and mounted with Prolong Gold antifade mountant (Invitrogen). The estimated number of tdTomato expressing cells were stereologically counted. Sampling for stereological quantification was done using an Olympus BX41 microscope with motorized stage (Applied Scientific Instrumentation) and computerized stereology software (Stereologer). The SNc was delineated in each animal in every other section and cells counted using a 40×/0.65NA Olympus lens.
Drug application in ex vivo brain slice or iPSC experiments was performed via perfusion in aCSF.

For `CNC(C)Cc1ccccc1` (centres unmarked) [methamphetamine, N-methylamphetamine], the pacemaking frequency (SNc dopaminergic neurons) was “attenuated”, the “tyrosine hydroxylase positive (TH+) cells” value [1] was “loss of TH+ cells” and the “tyrosine hydroxylase expressing neurons (TH+ neurons) in the SNc, stereological quantification” value ([2]; 5 mg/kg methamphetamine ip) was “significantly decreased tyrosine hydroxylase (TH) immunoreactivity in the SNc; also recorded: loss of tyrosine hydroxylase expressing neurons”. For the same molecule, the “SNc axons in the striatum, optical density measurements” value ([2]; 5 mg/kg methamphetamine) was “loss of tdTomato fluorescence in both the striatum and SNc neurons; also recorded: loss of SNc axons in the striatum” and the “labeled (tdTomato) SNc neurons, Dat-Cre X Ai14 mice, stereological quantification” value ([2]; 5 mg/kg methamphetamine) was “loss of tdTomato fluorescence in both the striatum and SNc neurons”.
